From paper PMC8373216, “Development and Preclinical Evaluation of New Inhaled Lipoglycopeptides for the Treatment of Persistent Pulmonary Methicillin-Resistant Staphylococcus aureus Infections” (Antimicrobial Agents and Chemotherapy, 2021)
Converted amounts (≈) assume the structure as drawn. Where two headings read alike, the source gives them in different places.

What was measured:
[1] = system: Cutibacterium acnes; test: Expanded panel broth microdilution MIC; format: cell-based
[2] = system: Staphylococcus lugdunensis; test: Expanded panel broth microdilution MIC; format: cell-based
[3] = system: Streptococcus pneumoniae; test: Expanded panel broth microdilution MIC/MBC; format: cell-based
[4] = system: Clostridium. perfringens; test: microbe, parasite or virus in culture; format: cell-based
[5] = system: Clostridioides difficile; test: Expanded panel broth microdilution MIC; format: cell-based
[6] = system: MRSA ATCC BAA 1556 (USA300); test: In-house broth microdilution MIC screening; format: cell-based, Staphylococcus aureus; conditions: Staphylococcus aureus; broth microdilution; read-out: MIC Value, MRSA ATCC BAA 1556
[7] = system: MRSA (ATCC BAA 1556; USA300); test: Acute pulmonary MRSA infection in neutropenic rats, nebulized nose-only inhalation; format: in vivo, Staphylococcus aureus; conditions: inhaled at 24 and 32 h postinfection, lungs at 48 h, RV40 14.4 mg/kg, RV94 18.8 mg/kg delivered
Description: Rats were rendered neutropenic with intraperitoneal (i.p.) cyclophosphamide on day −4 (150 mg/kg) and day −1 (100 mg/kg) relative to the challenge. On day 0 at 0 h, rats were challenged with MRSA via intranasal instillation at a target titer of 8.0 to 8.3 log10 CFU. At 24 and 32 h postchallenge, rats were loaded into a 12-port inhalation dosing tower, where they received nebulized drug or vehicle control treatments by nose-only inhalation. Animals were euthanized at 48 h postinfection for enumeration of lung MRSA titer. MRSA lung titer of test article treatments versus control is plotted for three separate experiments. […] Statistics are based on the Kolmogorov-Smirnov test for drug treatment versus control (RV94, P = 0.01). LOD = 2.1 log10 CFU/lungset.
Male Sprague Dawley rats (Envigo, Indianapolis, IN) weighing between 225 and 250 g were used in these studies. Rats were housed and acclimated to the study facility as described in the PK methods section. Rats were rendered neutropenic through a series of intraperitoneal cyclophosphamide (Sigma-Aldrich) injections on day −4 (150 mg/kg) and day −1 (100 mg/kg) relative to the challenge. On day 0 at 0 h, rats were challenged with MRSA ATCC BAA 1556 via intranasal instillation at a target titer of 8.0 to 8.3 log10 CFU using optical density and back-counting inoculum CFU. To prepare the inoculum, a frozen aliquot of the organism stored at −80°C was thawed, transferred into TSB, and incubated at 37°C while shaking for 16 h. Cultures were then centrifuged at 2,000 × g for 5 min, and the resulting pellet was resuspended in PBS and equilibrated. For the challenge procedure, rats were first anesthetized through use of 2 to 5% isoflurane in 100% oxygen, then restrained with a scruff grip and a total of 200 μl of inoculum was quickly introduced to one nare. The rat was held in a vertical position until the challenge was fully inhaled. Rats were monitored following challenge to ensure that normal respiration was achieved and then returned to their cage. […] At necropsy, whole lungs were aseptically removed and lung weights were recorded. […]

[8] = system: Enterococcus faecium; test: Expanded panel broth microdilution MIC/MBC; format: cell-based; conditions: for MIC: Enterococcus faecium, read-out: MIC
[9] = Single-dose nebulized nose-only inhalation PK in healthy rats; format: in vivo, rat; conditions: rat, in vivo
Description: Rats were acclimated in the study facility for approximately 1 week prior to study start. Ten or eleven rats per cohort were loaded into the chamber at the time of dosing. […] An additional airflow set to 6 liters/min was admixed with the nebulizer output to further direct the test articles to the animals. […] The remaining port on the chamber was fit with an aerosol sampling filter for dose determination over a 5 min sampling period. The average dose delivered to the nose of each animal was calculated using an algorithm that was previously described ([49]). […] Animals were euthanized for collection of whole lungs and plasma at time points ranging from immediate postdose (IPD; approximately 30 min after dosing for nebulization) to 168 h postdose (7 days). Drugs were extracted from tissues using customized protein precipitation methods with an appropriate internal standard for each compound and transferred for analysis by LC-MS/MS (Sciex API4500 or API6500+ mass spectrometer [Sciex, Framingham, MA]). GraphPad Prism (La Jolla, CA) was used for statistical analyses and data plotting. […] The data were applied to a noncompartmental analysis after extravascular dosing input and fit to a linear up/log down model. Statistical analysis of in vitro intracellular and biofilm activity was based on a two-way ANOVA with a Bonferroni post test. In vivo statistical analysis was based on the Kolmogorov-Smirnov test.

[10] = system: Staphylococcus epidermidis; test: Expanded panel broth microdilution MIC/MBC; format: cell-based; conditions: for MIC: Staphylococcus epidermidis
[11] = system: MRSA ATCC BAA 1556 (USA300) biofilm; test: MRSA biofilm killing, MBEC assay system, TSB with 1% human plasma; conditions: MBEC
[12] = system: Streptococcus mitis; test: Expanded panel broth microdilution MIC/MBC; format: cell-based; conditions: for MIC: Streptococcus mitis
[13] = male, Sprague Dawley, inhaled or intranasal

`CCCCCCCCCCNCCN[C@@]1(C)C[C@H](O[C@H]2[C@H](Oc3c4cc5cc3Oc3ccc(cc3Cl)[C@@H](O)[C@@H](NC(=O)[C@@H](CC(C)C)NC)C(=O)N[C@@H](CC(N)=O)C(=O)N[C@H]5C(=O)N[C@H]3C(=O)N[C@H](C(=O)N[C@H](C(=O)O)c5cc(O)cc(O)c5-c5cc3ccc5O)[C@H](O)c3ccc(c(Cl)c3)O4)O[C@H](CO)[C@@H](O)[C@@H]2O)O[C@@H](C)[C@H]1O` [RV40, N-decylaminoethylvancomycin] showed an MIC ([1]; ATCC6919, P. acnes ATCC 6919, read-out: MIC) of 8 ng/mL (≈ 4.9 nM), an MIC ([1]; ATCC11827, P. acnes ATCC 11827, read-out: MIC) of 8 ng/mL (≈ 4.9 nM) and an MIC ([1]; C. acnes, 2 isolates, read-out: MIC (median)) of 8 ng/mL (≈ 4.9 nM). The MIC ([2]; S. lugdunensis, 1 isolate) was 4 ng/mL (≈ 2.45 nM), the MIC ([2]; Staphylococcus lugdunensis, S. lugdunensis MMX 8724, read-out: MIC) was 4 ng/mL (≈ 2.45 nM) and the “MIC:MBC” value ([3]; S. pneumoniae PISP, MBC on one organism) was 1. It also gave an MIC ([3]; S. pneumoniae PRSP, 1 isolate) of at most 8 ng/mL, an MIC ([3]; Streptococcus pneumoniae, ATCC49619, S. pneumoniae ATCC 49619, PISP, read-out: MIC) of 4 ng/mL (≈ 2.45 nM) and an MIC ([3]; Streptococcus pneumoniae, S. pneumoniae MMX 432, PRSP, read-out: MIC) of at most 8 ng/mL. The MIC ([3]; Streptococcus pneumoniae, S. pneumoniae MMX 747, PISP, read-out: MIC) was 4 ng/mL (≈ 2.45 nM), the MIC ([3]; Streptococcus pneumoniae, S. pneumoniae PISP, 2 isolates, read-out: MIC (median)) was 4 ng/mL (≈ 2.45 nM) and the MIC [4] was 15 ng/mL (≈ 9.19 nM). It also gave an MIC ([4]; ATCC13124) of 15 ng/mL (≈ 9.19 nM), an MIC ([5]; ATCCBAA1805, C. difficile ATCC BAA-1805, ribo 027, read-out: MIC) of 60 ng/mL (≈ 36.8 nM) and an MIC ([5]; ATCCBAA1870, C. difficile ATCC BAA-1870, NAP1;ribo 027, read-out: MIC) of 120 ng/mL (≈ 73.5 nM). For the same compound, the MIC ([5]; C. difficile ATTC 700057, toxAB-, read-out: MIC) was 60 ng/mL (≈ 36.8 nM), the MIC ([5]; C. difficile NAP1;ribo 027, 1 isolate, read-out: MIC) was 120 ng/mL (≈ 73.5 nM) and the MIC ([5]; C. difficile ribo 027, 1 isolate, read-out: MIC) was 60 ng/mL (≈ 36.8 nM). The MIC ([5]; C. difficile toxAB-, 1 isolate, read-out: MIC) was 60 ng/mL (≈ 36.8 nM), the MIC [6] was 16 ng/mL (≈ 9.8 nM) and the “Average reduction in lung MRSA titer versus vehicle control” value [7] was 0.8 log10 CFU. For the same compound, the “MIC:MBC” value ([8]; E. faecium VanA VRE) was over 4, the “MIC:MBC” value ([8]; E. faecium VanB VRE) was over 8 and the MIC ([8]; E. faecium MMX 4204, VSE) was 4 ng/mL (≈ 2.45 nM). For the same compound, the MIC ([8]; E. faecium VSE, 1 isolate) was 4 ng/mL (≈ 2.45 nM), the MIC ([8]; VRE, E. faecium MMX 173, VanB VRE) was 8 ng/mL (≈ 4.9 nM) and the MIC ([8]; VRE, E. faecium MMX 851, VanA VRE) was 1000 ng/mL (≈ 613 nM). The MIC ([8]; VRE, E. faecium VanA VRE, 1 isolate) was 1000 ng/mL (≈ 613 nM), the MIC ([8]; VRE, E. faecium VanB VRE, 1 isolate) was 8 ng/mL (≈ 4.9 nM) and the Pulmonary dose ([9]; male, Sprague Dawley) was 0.30 mg/kg. The “Drug lung level at 120 h” value ([9]; male, Sprague Dawley, 120 h) was 105%, the Kp [9, 13] was 690 and the “Lung AUC0-∞” value [9, 13] was 9800 µg·h/g. The “Lung Cmax” value [9, 13] was 48 µg/g, the “Plasma Cmax” value [9, 13] was 100 ng/mL and the “Elimination from the lung” value [9] was “not measurably eliminated from the lung”. For the same compound, the “MIC:MBC” value ([10]; S. epidermidis MRSE, MBC on one organism) was 1, the MIC ([10]; ATCC49134, S. epidermidis ATCC 49134, MSSE, read-out: MIC) was 15 ng/mL (≈ 9.19 nM) and the MIC ([10]; MRSE, S. epidermidis MMX 762, MRSE, read-out: MIC) was 8 ng/mL (≈ 4.9 nM). It also gave an MIC ([10]; MRSE, S. epidermidis MMX 5145, MRSE, read-out: MIC) of 4 ng/mL (≈ 2.45 nM), an MIC ([10]; MRSE, S. epidermidis MRSE, 2 isolates, read-out: MIC (median)) of 8 ng/mL (≈ 4.9 nM) and an MIC ([10]; S. epidermidis MSSE, 1 isolate, read-out: MIC) of 15 ng/mL (≈ 9.19 nM). For the same compound, the “Reduction in MRSA biofilm titer compared to untreated biofilm” value ([11]; 128 μg/ml) was 4 log10 CFU/peg, the “Concentrations with statistically significant reduction versus control biofilm” value ([11]; two-way ANOVA, Bonferroni) was at least 4 µg/mL and the “MIC:MBC” value ([12]; S. mitis MGS, MBC on one organism) was 1. The MIC ([12]; ATCC49456, S. mitis (MGS) ATCC 49456, read-out: MIC) was 8 ng/mL (≈ 4.9 nM), the MIC ([12]; S. mitis (MGS) MMX 5798, read-out: MIC) was 30 ng/mL (≈ 18.4 nM) and the MIC ([12]; S. mitis MGS, 2 isolates, read-out: MIC (median)) was 20 ng/mL (≈ 12.3 nM).
